# According to patent publication EP2459551B1, “DIHYDROBENZOINDAZOLES” (Merck Sharp & Dohme B.V., priority 2009, dated 2011):
# Target: T1, human FSH receptor (Homo sapiens, UniProt P23945)
# T1 sequence (P23945 18-695): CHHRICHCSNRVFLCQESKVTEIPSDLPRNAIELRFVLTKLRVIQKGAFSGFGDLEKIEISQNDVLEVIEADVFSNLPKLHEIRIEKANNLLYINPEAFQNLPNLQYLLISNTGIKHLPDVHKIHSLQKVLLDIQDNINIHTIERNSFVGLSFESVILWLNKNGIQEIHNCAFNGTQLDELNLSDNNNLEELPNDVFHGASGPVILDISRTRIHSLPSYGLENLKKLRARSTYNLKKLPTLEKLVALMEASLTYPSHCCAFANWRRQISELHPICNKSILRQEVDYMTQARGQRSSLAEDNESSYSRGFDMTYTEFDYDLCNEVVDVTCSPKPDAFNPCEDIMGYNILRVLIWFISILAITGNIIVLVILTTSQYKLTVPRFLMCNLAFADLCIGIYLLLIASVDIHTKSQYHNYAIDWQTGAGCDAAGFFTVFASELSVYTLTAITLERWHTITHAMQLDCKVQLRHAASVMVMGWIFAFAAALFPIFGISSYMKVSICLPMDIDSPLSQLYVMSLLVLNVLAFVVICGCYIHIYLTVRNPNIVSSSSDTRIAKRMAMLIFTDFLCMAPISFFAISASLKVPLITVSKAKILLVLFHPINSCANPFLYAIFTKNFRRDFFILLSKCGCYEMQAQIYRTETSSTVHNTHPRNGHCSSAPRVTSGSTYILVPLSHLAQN
# Experimental: Agonistic activity of compounds at the human FSH receptor expressed in CHO cells
# Agonistic activity of the compounds at the human FSH receptor was determined in Chinese Hamster Ovary (CHO) cells stably transfected with the human FSH receptor and cotransfected with a cAMP responsive element (CRE)/promotor directing the expression of a firefly luciferase reporter gene. […] Cells (7,500 cells/well of a 384 well plate) were incubated in Dulbecco' minimal essential F12 modified medium (Invitrogen), supplemented with 1 µg/ml bovine insulin, 5 µg/ml human apotransferrin, 80 U/ml penicillin G and 80 µg/ml streptomycin with the test compounds (concentration between 0.0316 nM and 10.0 µM) in duplicate in a humidified atmosphere (95%) at 5-7% CO2 and 37°C. The final concentration of DMSO was 1%. After 4 hours of incubation, plates were allowed to adjust to room temperature for 1 hour. Then, Luclite (PerkinElmer) solution was added to the wells and cells were allowed to lyse for at least 1 hour at room temperature. Subsequently, luciferase activity was measured in a luminescence counter. The signal is expressed as counts per second (cps). The EC50 (concentration of the test compound that elicits half-maximal (50 %) luciferase stimulation compared to the compound's maximally attainable effect) and efficacy values (maximal effect of the test compound as percentage of the maximal effect of recombinant human FSH) of the compounds were determined using the software program MathIQ (version 2.0, ID Business Solutions Limited).
# 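Further: CHO cells stably expressing human FSH receptor with CRE-driven firefly luciferase, luminescence read as counts per second after 4 h compound exposure in 1% DMSO.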
row,SMILES,EC50
1,"COc1cc2c(cc1OC(C)C)-c1c(c(C(=O)N(C)C(C)(C)C)nn1-c1ccc(F)cc1)CC2 [Example 13cd, N-tert-butyl-1-(4-fluorophenyl)-8-isopropoxy-7-methoxy-N-methyl-4,5-dihydro-1H-benzo[g]indazole-3-carboxamide]",0.1 to 1 µM
2,"COc1cc2c(cc1OC(C)C)-c1c(c(C(=O)N(C)C(C)(C)C)nn1-c1ccc(Cl)cc1)CC2 [Example 13ce, N-tert-butyl-1-(4-chlorophenyl)-8-isopropoxy-7-methoxy-N-methyl-4,5-dihydro-1H-benzo[g]indazole-3-carboxamide]",0.1 to 1 µM
3,"COc1cc2c(cc1OC(C)C)-c1c(c(C(=O)N(C)C(C)(C)C)nn1-c1ccc(Br)cc1)CC2 [Example 13cf, N-tert-butyl-1-(4-bromophenyl)-8-isopropoxy-7-methoxy-N-methyl-4,5-dihydro-1H-benzo[g]indazole-3-carboxamide]",1 to 10 µM
4,"COc1cc2c(cc1OC)-c1c(c(C(=O)N3CCCN(C(C)=O)CC3)nn1-c1ccsc1)CC2 [Example 14e, 1-(4-(7,8-dimethoxy-1-(thiophen-3-yl)-4,5-dihydro-1H-benzo[g]indazole-3-carbonyl)-1,4-diazepan-1-yl)ethanone]",1 to 10 µM
